Consider 22 molecules from patent US8168650B2, “Therapeutic uses of bicyclic ligands of sigma 2 receptor” (priority 2006, dated 2012).

A word on the Ki: it is the dissociation constant of the complex between target and ligand, obtained from inhibition or displacement.

“Also recorded” adds a separate entry of the source. Structures can show the parent of a compound that is named as a salt. Where two headings read alike, the source gives them in different places.

Series [1] deals with T1, σ1 receptor (Cavia porcellus, UniProt Q60492). Put plainly: biochemical.
T1 sequence (Q60492 whole entry): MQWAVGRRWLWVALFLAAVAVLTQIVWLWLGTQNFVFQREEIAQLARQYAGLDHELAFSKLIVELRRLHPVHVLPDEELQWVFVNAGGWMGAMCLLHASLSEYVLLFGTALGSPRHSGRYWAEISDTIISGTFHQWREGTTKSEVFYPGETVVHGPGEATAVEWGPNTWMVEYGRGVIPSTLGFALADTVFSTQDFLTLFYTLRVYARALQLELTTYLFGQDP
Description: (§1) In vitro binding studies were conducted in order to determine the affinity of the target compounds at σ1 and σ2 receptors.
(§2) In this example, test compounds were dissolved in N,N-dimethylformamide (DMF), dimethylsulfoxide (DMSO) or ethanol and then diluted in 50 mM Tris-HCl, pH 7.4 buffer containing 150 mM NaCl and 100 mM EDTA. Membrane homogenates were made from guinea pig brain for σ1 binding assays and rat liver for σ2 binding assays. Membrane homogenates were diluted with 50 mM Tris-HCl buffer, pH 8.0, and incubated at 25° C. in a total volume of 150 μL in 96-well plates with the radioligand and test compounds with concentrations ranging from 0.1 nM to 10 μM. After incubation was completed, the reactions were terminated by the addition of 150 μL of ice-cold wash buffer (10 mM Tris-HCl, 150 mM NaCl, pH 7.4) using a 96-channel transfer pipette (Fisher Scientific, Pittsburgh, Pa.), and the samples harvested and filtered rapidly through 96-well fiberglass filter plate (Millipore, Billerica, Mass.) that had been presoaked with 100 μL of 50 mM Tris-HCl buffer, pH 8.0, for 1 h. Each filter was washed three times with 200 μL of ice cold wash buffer.
(§3) Ki values were calculated using the method of Cheng and Prusoff20 and represent mean values±SEM.
Another series deals with T2, σ2 receptor (Rattus norvegicus, UniProt Q5U3Y7).
T2 construct: from tissue; host or cells: rat liver membrane homogenates
T2 sequence (Q5U3Y7 1-176): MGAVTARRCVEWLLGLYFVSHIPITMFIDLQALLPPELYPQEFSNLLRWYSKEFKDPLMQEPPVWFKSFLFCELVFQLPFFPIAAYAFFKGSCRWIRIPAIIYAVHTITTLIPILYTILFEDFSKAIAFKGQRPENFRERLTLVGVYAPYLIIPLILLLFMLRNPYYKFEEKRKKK
Kind of series: σ2 receptor binding assay, [3H]DTG or [3H]RHM-1. The note with it: for σ1/σ2 Ratio: Ki for σ1/Ki for σ2.

The target in series [2] is T1, σ1 receptor.
Description: as §1, §2, §3
Another series relates to EMT-6 cells. The settings on record: EMT-6, 1 h pre-incubation with inhibitor (100 μM), MTS assay. On the technique in general: Tetrazolium dyes change colour on reduction, which living cells bring about.
Setting [3] is: Ki σ2, inhibiting binding of [3H]DTG or [3H]RHM-1 to rat liver homogenates, mean ± SEM.
The mark [4] stands for this setting: inhibiting binding of [3H]DTG or [3H]RHM-1 to rat liver homogenates, mean ± SEM, read-out: Ki σ2.

Description for EMT-6 cells: To determine the effect of blocking the caspase-dependent apoptotic pathway on sigma ligand-induced cell killing, the caspase inhibitors, Z-VAD-FMK or Z-DEVD-FMK (Calbiochem, San Diego, Calif.) were added to the culture medium 1 hour before the sigma ligands, and the MTS assay performed as described above.
Description for σ2 receptor: as §1, §2, §3

For the molecule `COc1ccc(C)cc1NC(=O)OC1CC2CCCC(C1)N2CCCCN` (stereo not drawn) [Compound 1a, N-(9-(4-Aminobutyl)-9-azabicyclo[3.3.1]nonan-3α-yl)-N-(2-methoxy-5-methyl-phenyl)carbamate hydrochloride], the inhibitory constant (Ki) on σ1 receptor [1] is 2490 ± 271 nM. Also, on σ2 receptor, the “affinity and selectivity for σ2 versus σ1 receptors (in words)” value (shortened to “affinity and selectivity”) is “moderate affinity and selectivity”; the “σ1/σ2 Ratio” value is 193. In addition, the Ki at σ2 receptor (setting [3]) came out at 12.9 ± 0.46 nM.
For the molecule `COc1ccc(C)cc1NC(=O)O[C@H]1C[C@H]2CCC[C@@H](C1)N2CCCCCCN.Cl` [Compound 1b, N-(9-(6-Aminohexyl)-9-azabicyclo[3.3.1]nonan-3α-yl)-N-(2-methoxy-5-methyl-phenyl)carbamate hydrochloride], the Ki at σ1 receptor [2] stood at 1420 ± 439 nM; at σ2 receptor (setting [4]), 5.19 ± 0.8 nM. On σ2 receptor, the “σ1/σ2 Ratio” value came to 273. Further, at σ2 receptor (hydrochloride), the “affinity and selectivity” value was “highest affinity and selectivity; also recorded: moderate affinity and selectivity”.
At σ1 receptor [2], `COc1ccc(C)cc1NC(=O)OC1CC2CCCC(C1)N2CCCCCCCCCCN` (stereo not drawn) [Compound 1c, N-(9-(10-Aminodecyl)-9-azabicyclo[3.3.1]nonan-3α-yl)-N-(2-methoxy-5-methylphenyl)carbamate hydrochloride] displayed a Ki of 134 ± 11.9 nM. Moreover, at σ2 receptor, the “affinity and selectivity” value was “high affinity at σ2 receptor but low selectivity”; the “σ1/σ2 Ratio” value came out at 19. For the same molecule, the Ki on σ2 receptor (setting [4]) was found to be 7.07 ± 1.27 nM.
Consider `COc1ccc(C)cc1NC(=O)OC1CC2CCCC(C1)N2CCCCNCc1cccc(Br)c1` (stereo not drawn) [Compound 2a, N-(9-(4-(3′-Bromobenzylamino)butyl)-9-azabicyclo[3.3.1]nonan-3α-yl)-N-(2-methoxy-5-methylphenyl)carbamate oxalate], for which the Ki came out at 66.3 ± 5.3 nM on σ1 receptor [1] and 3.06 ± 0.41 nM on σ2 receptor (setting [3]). Further, the “σ1/σ2 Ratio” value at σ2 receptor is reported as 21.66.
For `COc1ccc(C)cc1NC(=O)OC1CC2CCCC(C1)N2CCCCNCc1cccc(F)c1` (stereo not drawn) [Compound 2b, N-(9-(4-(3′-Fluorobenzylamino)butyl)-9-azabicyclo[3.3.1]nonan-3α-yl)-N-(2-methoxy-5-methylphenyl)carbamate oxalate] the same measures were 0.3 ± 0.05 nM, 4.13 ± 0.33 nM and 0.07.
For `COc1ccc(C)cc1NC(=O)O[C@H]1C[C@H]2CCC[C@@H](C1)N2CCCCNCc1cccc(I)c1` [Compound 2c, N-(9-(4-(3′-Iodobenzylamino)butyl)-9-azabicyclo-[3.3.1]nonan-3α-yl)-N-(2-methoxy-5-methylphenyl)carbamate oxalate] the same measures were 63.9 ± 5.61 nM, 1.21 ± 0.14 nM and 52.77.
For `COc1ccc(C)cc1NC(=O)OC1CC2CCCC(C1)N2CCCCNCc1ccc(Br)cc1` (stereo not drawn) [Compound 2d, N-(9-(4-(4′-Bromobenzylamino)butyl)-9-azabicyclo[3.3.1]nonan-3α-yl)-N-(2-methoxy-5-methylphenyl)carbamates] the same measures were 1.7 ± 0.28 nM, 4.07 ± 0.61 nM and 0.42.
With `COc1ccc(C)cc1NC(=O)OC1CC2CCCC(C1)N2CCCCNCc1ccc(F)cc1` (stereo not drawn) [Compound 2e, N-(9-(4-(4′-Fluorobenzylamino)butyl)-9-azabicyclo[3.3.1]nonan-3α-yl)-N-(2-methoxy-5-methylphenyl)carbamate oxalate], the Ki at σ1 receptor [1] was determined as 22.1 ± 1.58 nM; at σ2 receptor (setting [3]), 29.1 ± 3.48 nM. Also, the “σ1/σ2 Ratio” value at σ2 receptor is given as 0.76.
Turning to `COc1ccc(C)cc1NC(=O)OC1CC2CCCC(C1)N2CCCCNCc1ccc(I)cc1` (stereo not drawn) [Compound 2f, N-(9-(4-(4′-Iodobenzylamino)butyl)-9-azabicyclo[3.3.1]nonan-3α-yl)-N-(2-methoxy-5-methylphenyl)carbamate oxalate], the Ki on σ1 receptor [1] was determined as 0.34 ± 0.03 nM; on σ2 receptor (setting [3]), 4 ± 0.54 nM. Moreover, at σ2 receptor, the “σ1/σ2 Ratio” value turned out to be 0.08.
For `COc1ccc(C)cc1NC(=O)OC1CC2CCCC(C1)N2CCCCCCNCc1cccc(Br)c1` (stereo not drawn) [Compound 3a, N-(9-(6-(3′-Bromobenzylamino)hexyl)-9-azabicyclo[3.3.1]nonan-3α-yl)-N-(2-methoxy-5-methylphenyl)carbamate oxalate] the same measures were 112 ± 4.8 nM, 8.94 ± 0.61 nM and 12.57.
Take `COc1ccc(C)cc1NC(=O)OC1CC2CCCC(C1)N2CCCCCCNCc1cccc(F)c1` (stereo not drawn) [Compound 3b, N-(9-(6-(3′-Fluorobenzylamino)hexyl)-9-azabicyclo[3.3.1]nonan-3α-yl)-N-(2-methoxy-5-methylphenyl)carbamate oxalate]: the Ki was found to be 0.46 ± 0.05 nM at σ1 receptor [1] and 4.85 ± 0.49 nM at σ2 receptor (setting [3]). In addition, the “σ1/σ2 Ratio” value on σ2 receptor is reported as 0.09.
For `COc1ccc(C)cc1NC(=O)O[C@H]1C[C@H]2CCC[C@@H](C1)N2CCCCCCNCc1cccc(I)c1` [Compound 3c, N-(9-(6-(3′-Iodobenzylamino)hexyl)-9-azabicyclo-[3.3.1]nonan-3α-yl)-N-(2-methoxy-5-methylphenyl)carbamate oxalate] the same measures were 0.56 ± 0.06 nM, 32.7 ± 5.93 nM and 0.02.
For `COc1ccc(C)cc1NC(=O)OC1CC2CCCC(C1)N2CCCCCCNCc1ccc(Br)cc1` (stereo not drawn) [Compound 3d, N-(9-(6-(4′-Bromobenzylamino)hexyl)-9-azabicyclo[3.3.1]nonan-3α-yl)-N-(2-methoxy-5-methylphenyl)carbamate oxalate] the same measures were 43.2 ± 2.88 nM, 9.93 ± 1.61 nM and 4.35.
For `COc1ccc(C)cc1NC(=O)OC1CC2CCCC(C1)N2CCCCCCNCc1ccc(F)cc1` (stereo not drawn) [Compound 3e, N-(9-(6-(4′-Fluorobenzylamino)hexyl)-9-azabicyclo[3.3.1]nonan-3α-yl)-N-(2-methoxy-5-methylphenyl)carbamate oxalate] the same measures were 1 ± 0.26 nM, 70.9 ± 4.38 nM and 0.01.
Take `COc1ccc(C)cc1NC(=O)OC1CC2CCCC(C1)N2CCCCCCNCc1ccc(I)cc1` (stereo not drawn) [Compound 3f, N-(9-(6-(4′-Iodobenzylamino)hexyl)-9-azabicyclo[3.3.1]nonan-3α-yl)-N-(2-methoxy-5-methylphenyl)carbamate oxalate]: the Ki at σ1 receptor [1] turned out to be 0.65 ± 0.09 nM; on σ2 receptor (setting [3]), 35.9 ± 1.5 nM. Besides, the “σ1/σ2 Ratio” value on σ2 receptor is reported as 0.02.
Consider `COc1ccc(C)cc1NC(=O)OC1CC2CCCC(C1)N2CCCCCCNC(=O)c1ccc(Cl)cc1` (stereo not drawn) [Compound 4a], for which the affinity on σ1 receptor [1] corresponds to a Ki of 1400 ± 64 nM. Besides, on σ2 receptor, the “affinity and selectivity” value is “high affinity and selectivity”; the “σ1/σ2 Ratio” value worked out at 392. On σ2 receptor (setting [3]), this molecule displayed a Ki of 3.56 ± 0.08 nM.
As for `COc1ccc(C)cc1NC(=O)OC1CC2CCCC(C1)N2CCCCCCNC(=O)c1ccc(Br)cc1` (stereo not drawn) [Compound 4b, N-(9-(4-(4′-Bromobenzoylamino)hexyl)-9-azabicyclo[3.3.1]nonan-3α-yl)-N-(2-methoxy-5-methylphenyl)carbamate oxalate], the inhibition constant (Ki) worked out at 2040 ± 98 nM on σ1 receptor [1] and 719 ± 84 nM at σ2 receptor (read-out: Ki σ2). Also, at σ2 receptor, the “σ1/σ2 Ratio” value is reported as 2.84.
The molecule `COc1ccc(C)cc1NC(=O)OC1CC2CCCC(C1)N2CCCCCCNS(=O)(=O)c1cccc2c(N(C)C)cccc12` (stereo not drawn) [Compound 9, N-(9-(6-(5-Dimethylamino-1-naphthalenesulfonamido))hexyl)-9-azabicyclo[3.3.1]-nonan-3α-yl-N-(2-methoxy-5-methylphenyl)carbamate oxalate] registered a Ki at σ1 receptor [1] of 12600 nM. For the same molecule, at σ2 receptor, the “affinity and selectivity” value was “moderate affinity and selectivity”; the “σ1/σ2 Ratio” value was found to be 85.43. The Ki on σ2 receptor (read-out: Ki σ2) came out at 148 ± 8.85 nM.
In the case of `COc1ccc(C)cc1NC(=O)OC1C[C@H]2CCC[C@@H](C1)N2CCCCCCN` (stereo partly drawn) [SV119], the results for the Ki on σ1 receptor [2] and at σ2 receptor (setting [4]) were 1420 nM and 5.2 nM, respectively. The “σ1/σ2 Ratio” value at σ2 receptor was 273.
With `COC(=O)CC[C@H](NC(=O)[C@H](CC(=O)OC)NC(=O)OCc1ccccc1)C(=O)N[C@H](C(=O)N[C@@H](CC(=O)OC)C(=O)CF)C(C)C` [Z-DEVD-FMK], the “effect on cell death / cytotoxic effects induced by the three σ2 selective ligands” value in the series on EMT-6 cells is “partially blocked; also recorded: partially, but not completely, blocked”.
“N-(9-(4-(4′-Fluorobenzoylamino)hexyl)-9-azabicyclo[3.3.1]nonan-3α-yl)-N-(2-methoxy-5-methylphenyl)carbamate oxalate [Compound 4c]”: the Ki on σ1 receptor [2] came out at 1240 ± 212 nM; on σ2 receptor (setting [4]), 497 ± 103 nM. For the same molecule, the “σ1/σ2 Ratio” value at σ2 receptor worked out at 2.50.
For “N-(9-(4-(40-Iodobenzoylamino)hexyl)-9-azabicyclo[3.3.1]nonan-3α-yl)-N-(2-methoxy-5-methylphenyl)carbamate oxalate [Compound 4d]” the same measures were 1410 ± 318 nM, 1010 nM and 1.40.
